How the values were obtained:
[1] = Cell-free hydrogen peroxide scavenging (direct antioxidant) assay; conditions: 50 μM
Description: A mixture of hydrogen peroxide and water without cells was mixed with the DCFH-DA dye and 82U of esterase as described above. To this mixture the drugs were added and results monitored on the fluorimeter.

[2] = test system: T. thermophila; assay: Phagocytosis activity assay (India ink phagosome formation); format: cell-based, Tetrahymena thermophila; conditions: for effect of Pertussis toxin pretreatment on the compound's effect on phagocytosis: Pertussis toxin pretreatment (5 minutes), FIGS. 5-6; for effect on rate of phagosome formation / phagocytic activity: 10 minutes drug/ink exposure, FIGS. 2-4
Description: Log-phase T. thermophila cultures were grown in 2% protease peptone, at 25° C. The cells were washed and resuspended in 10 mM HEPES, pH 7.4 (250,000 cells/ml). Test compounds were mixed with diluted India ink (1:25, v:v) in order to visualize the newly formed phagosomes. At t=0, the drug/ink mixture was added to the Tetrahymena cells, and at t=10 minutes, […] samples of cell suspension were removed and fixed in 10% formaldehyde. At least about 100 random cells from each sample were then examined using a light microscope. Phagocytic activity was assessed by calculating the ratio of cells with food vacuoles compared to the cells with no food vacuoles.

[3] = test system: Tetrahymena cells; assay: Ca++ signaling assay (Calcium Orange fluorescence, intracellular calcium release); format: cell-based, Tetrahymena thermophila; conditions: for effect of Pertussis toxin pretreatment on the compound's calcium release activity: 0.5 μg/ml Pertussis toxin for 5 minutes prior to treatment
Description: Cell density was adjusted to 500,000 cells/ml using a 10 mM HEPES and 2.5 mM Probenecid buffer (pH 7.4) (Sigma, St. Louis, Mo.). The cells were loaded with 3 μM Calcium Orange AM ester (Molecular Probes, Eugene, Oreg.) for 90 minutes in the dark. The cells were washed, resuspended in buffer, and incubated for 1 hour to allow de-esterification of the fluorescent probe. The cells were washed twice and placed in a 2 ml quartz cuvet. Calcium release was measured by an LS50B Perkin Elmer Fluorimeter (Ex=549, Em=576) (Perkin Elmer, Wellesley, Mass.) for a 20 minute period. The cells were exposed to the test compounds for 20 minutes and then the fluorescence was recorded. In some experiments, the cells were pretreated with 0.5 μg/ml Pertussis toxin for 5 minutes. FIGS. 7A-7C show Tetrahymena cells loaded with Calcium Orange under fluorescence microscopy (X400). Upon calcium binding to calcium orange, the intensity increases thereby indicating the release of intracellular calcium. FIG. 7A is a control.

[4] = test system: H. pygmaea cells; assay: Injury response assay, chemical injury (mastoparan-induced oxidative burst); format: cell-based, Heterocapsa pygmaea; conditions: 10 μM, FIG. 14
Description: (§1) To determine the protective effect of pseudopterosin compounds against chemical injury, mastoparan was administered to test cells and released reactive oxygen species calibrated to H2O2 was measured as an indicator of injury.
(§2) Symbiodinium spp. cells were isolated, prepared and identified as described in Example 3. Heterocapsa pygmaea was grown in culture in F-1 media without silica. The cells were harvested in log growth phase and diluted to about 5×10^5 cells/ml using a hemocytometer. […] The oxidative burst was prevented or inhibited by about 71% by incubating the H. pygmaea cells with a mixture comprising 25 μM of pseudopterosin compounds for 1 hour prior to exposure to mastoparan.
(§3) H2O2 concentration was calculated from a standard curve from DCFH-DA fluorescence (0.05 mM, redox sensitive probe, requires esterase (82 U) for detection of H2O2). Fluorescence was measured using a Perkin Elmer LS50B Fluorimeter, excitation 488 nm and emission 525 nm.

[5] = test system: Symbiodinium spp. cells; assay: Injury response assay, chemical injury (mastoparan) in Symbiodinium; format: cell-based; conditions: 10 μM, FIG. 14
Description: as §1, §2, §3

[6] = test system: Heterocapsa pygmaea cells; assay: Injury response assay, physical injury (ultrasound-induced oxidative burst, H2O2 by DCFH-DA); format: cell-based; conditions: FIG. 16, read-out: inhibition of oxidative burst in injured cells
Description: The released reactive oxygen species were calibrated to H2O2, the least labile of the group. […] Specifically, by homogenization in a blender with 0.22 μm filtered seawater and 10 mM EDTA, and filtered through 4 layers of cheesecloth. Algal symbionts were pelleted out by centrifugation at 250×g and subsequently washed 10 times with 40 ml clean filtered seawater and pelleted by centrifugation at 750×g. The cells were further purified on Percoll® (Sigma, St. […] DNA staining using DAPI detected on epifluorescence microscopy was used to detect contaminants due to bacterial or coral cells. Cells isolated from live coral were diluted to a final concentration of about 5×10^5 cells/ml using a hemocytometer and maintained in filtered seawater. Heterocapsa pygmaea is grown in culture in F-1 media without silica. The cells were harvested in log growth phase and diluted to about 5×10^5 cells/ml using a hemocytometer. […] H2O2 concentration was calculated from a standard curve from DCFH-DA fluorescence (0.05 mM, redox sensitive probe, requires esterase (82 U) for detection of H2O2). Fluoresence was measured using a Perkin Elmer LS50B Fluorimeter, excitation 488 nm and emission 525 nm.

Molecule	effect of Pertussis toxin pretreatment on the compound's effect on phagocytosis [2]	effect of Pertussis toxin pretreatment on the compound's calcium release activity [3]	effect on rate of phagosome formation / phagocytic activity [2]	further results
O=C1O[C@H]([C@@H](O)CO)C(O)=C1O [ascorbic acid]				immediate reduction of the fluorescent signal in cell free system [1]: about 60%
COc1ccc2c(c1)CC[C@@H]1[C@@H]2CC[C@]2(C)[C@@H](NCCCCCCN3C(=O)C=CC3=O)CC[C@@H]12 [Pseudopterosin U73122]	not blocked by Pertussis toxin pretreatment	Pertussis toxin does not inhibit U73122 activity		
mastoparan		inhibits the effects of mastoparan		effect of mastoparan on oxidative burst in H. pygmaea [4]: cause a large oxidative burst; effect of mastoparan on Symbiodinium spp. cells [5]: no effect
[Ca+2].[Cl-].[Cl-] [CaCl2]			increases the rate of phagocytic activity	
c1ccc2c(c1)[I+]c1ccccc1-2 [DPI, Diphenylene iodonium chloride]				inhibition at 50 µM [6]: ~96%
CC(C)=C[C@H]1C[C@H](C)[C@H]2CC[C@H](C)c3c(O[C@@H]4OC[C@@H](O)[C@H](O)[C@H]4O)c(O)c(C)c1c32 [PsA, Pseudopterosin A]	completely blocks the effect of PsA on phagocytosis	Pertussis toxin blocks PsA activity	decreases the rate of phagosome formation in a dose dependent manner	effect of mastoparan on PsA activity ([3]; FIG. 10A): Mastoparan does not inhibit PsA; effect of Verapamil or Gd3+ on the effects of PsA (intracellular calcium release and phagosome formation) ([3]; T. thermophila): not inhibited by Verapamil or Gd^3+; effect of suramin pretreatment on PsA activity ([3]; suramin pretreatment (5 minutes), FIG. 10B): blocks PsA activity
